Experimental data: ChEMBL document CHEMBL1151359, “Effects of Tetracyclic and Pentacyclic Triterpenoids on Growth of Phytophthora cactorum” (1981)
Activity calls are given as the source filed them. The rule behind the calls is not given here.

These compounds were tested on Phytophthora cactorum (assay: Growth promotion activity in Phytophthora cactorum at 10 mg/L in liquid culture medium).
Assay type: functional, organism-based
For `CC(C)CCC[C@@H](C)[C@H]1CC[C@H]2[C@@H]3CC=C4C[C@@H](O)CC[C@]4(C)[C@H]3CC[C@]12C`, the Activity was “Active”. `C[C@H]1[C@H](C)CC[C@]2(C)CC[C@]3(C)C(=CC[C@@H]4[C@@]5(C)CC[C@H](O)C(C)(C)[C@@H]5CC[C@]43C)[C@H]12` was tested, and the Activity was “Active”. In the case of `CC1(C)CCC[C@]2(C)[C@H]3CC[C@@H]4[C@@]5(C)CC[C@H](O)C(C)(C)[C@@H]5CC[C@@]4(C)[C@]3(C)CC[C@@H]12` [TETRAHYMANOL], the Activity is reported as “Active”. `CC1(C)CC[C@]2(C)CC[C@]3(C)C(=CC[C@@H]4[C@@]5(C)CC[C@H](O)C(C)(C)[C@@H]5CC[C@]43C)[C@@H]2C1` [beta-AMYRIN] was tested, and the Activity was “Active”.

What follows are compounds tested on Phytophthora cactorum (assay: Antifungal activity against Phytophthora cactorum at 10 mg/L in liquid culture medium).
Assay type: functional, organism-based
`C=C(C)[C@H]1CC[C@]2(C)[C@H]3CC[C@@H]4[C@@]5(C)CCCC(C)(C)[C@@H]5CC[C@@]4(C)[C@]3(C)CC[C@@H]12` was tested, and the Activity was “Active”. For `C=C(C)[C@@H]1CC[C@]2(C)CC[C@]3(C)[C@H](CC[C@@H]4[C@@]5(C)CCC(=O)C(C)(C)[C@@H]5CC[C@]43C)[C@@H]12`, the Activity was “Active”. `CC(=O)OC(C)(C)/C=C/C(=O)[C@](C)(O)[C@H]1[C@H](O)C[C@@]2(C)[C@@H]3CC=C4[C@@H](C=C(O)C(=O)C4(C)C)[C@]3(C)C(=O)C[C@]12C` was tested, and the Activity was “Active”. In the case of `CC(=O)OC(C)(C)/C=C/C(=O)[C@](C)(O)[C@H]1[C@H](O)C[C@@]2(C)[C@@H]3CC=C4[C@@H](C[C@H](O)C(=O)C4(C)C)[C@]3(CO)C(=O)C[C@]12C`, the Activity is reported as “Active”. With `CC(=O)OC(C)(C)/C=C/C(=O)[C@](C)(O)[C@H]1[C@H](O)C[C@@]2(C)[C@@H]3CC=C4[C@H](C[C@H](O)C(=O)C4(C)C)[C@]3(C)C(=O)C[C@]12C` the Activity was “Active”. In the case of `CC(C)(O)/C=C/C(=O)[C@](C)(O)[C@H]1[C@H](O)C[C@@]2(C)[C@@H]3CC=C4[C@@H](C[C@H](O)C(=O)C4(C)C)[C@]3(C)C(=O)C[C@]12C`, the Activity is reported as “Active”. In the case of `C[C@H]1C(=O)CC[C@@H]2[C@]1(C)CC[C@H]1[C@@]2(C)CC[C@@]2(C)[C@@H]3CC(C)(C)CC[C@]3(C)CC[C@]12C`, the Activity is reported as “Active”. `CC(=O)OC(C)(C)/C=C/C(=O)[C@](C)(O)[C@H]1[C@H](O)C[C@@]2(C)[C@@H]3CC=C4[C@@H](CC[C@@H](O)C4(C)C)[C@]3(CO)C(=O)C[C@]12C` [CUCURBITACIN C] was tested, and the Activity was “Active”.

These compounds were tested on Phytophthora cactorum (assay: Growth promotion activity of Phytophthora cactorum assessed as mycelial dry weight at 10 mg/L after 12 days in liquid culture medium).
Assay type: functional
`CC[C@H](CC[C@@H](C)[C@H]1CC[C@H]2[C@@H]3CC=C4C[C@@H](O)CC[C@]4(C)[C@H]3CC[C@]12C)C(C)C` [BETA-SITOSTEROL] showed an Activity of 125 mg. Compound `CC(C)[C@H](C)CC[C@@H](C)[C@H]1CC[C@H]2[C@@H]3CC=C4C[C@@H](O)CC[C@]4(C)[C@H]3CC[C@]12C` [CAMPESTEROL] has an Activity of 125 mg.

The compounds below were run on Phytophthora cactorum (assay: Growth promotion activity of Phytophthora cactorum assessed as mycelial dry weight at 10 mg/L after 18 days in liquid culture medium).
Assay type: functional
`CC[C@H](CC[C@@H](C)[C@H]1CC[C@H]2[C@@H]3CC=C4C[C@@H](O)CC[C@]4(C)[C@H]3CC[C@]12C)C(C)C` [BETA-SITOSTEROL] gave an Activity of 200 mg. With `CC(C)[C@H](C)CC[C@@H](C)[C@H]1CC[C@H]2[C@@H]3CC=C4C[C@@H](O)CC[C@]4(C)[C@H]3CC[C@]12C` [CAMPESTEROL] the Activity was 200 mg. `CC1(C)CCC[C@]2(C)[C@H]3CC[C@@H]4[C@@]5(C)CC[C@H](O)C(C)(C)[C@@H]5CC[C@@]4(C)[C@]3(C)CC[C@@H]12` [TETRAHYMANOL] showed an Activity of 135 mg. For `CC1(C)CC[C@]2(C)CC[C@]3(C)C(=CC[C@@H]4[C@@]5(C)CC[C@H](O)C(C)(C)[C@@H]5CC[C@]43C)[C@@H]2C1` [beta-AMYRIN], the Activity was 135 mg.

These compounds were tested on Phytophthora cactorum (assay: Effect on Phytophthora cactorum growth assessed as colony diameter at 10 mg/L after 6 days in solid culture medium).
Assay type: functional
With `C=C(C)[C@H]1CC[C@]2(C)[C@H]3CC[C@@H]4[C@@]5(C)CCCC(C)(C)[C@@H]5CC[C@@]4(C)[C@]3(C)CC[C@@H]12` the Activity was 30 mm. `CC[C@H](CC[C@@H](C)[C@H]1CC[C@H]2[C@@H]3CC=C4C[C@@H](O)CC[C@]4(C)[C@H]3CC[C@]12C)C(C)C` [BETA-SITOSTEROL] was tested, and the Activity was 35 mm. With `C=C(C)[C@@H]1CC[C@]2(CO)CC[C@]3(C)[C@H](CC[C@@H]4[C@@]5(C)CC[C@H](O)C(C)(C)[C@@H]5CC[C@]43C)[C@@H]12` [BETULIN] the Activity was 30.5 mm. `CC(=O)OC(C)(C)/C=C/C(=O)[C@](C)(O)[C@H]1[C@H](O)C[C@@]2(C)[C@@H]3CC=C4[C@@H](CC[C@@H](O)C4(C)C)[C@]3(CO)C(=O)C[C@]12C` [CUCURBITACIN C] showed an Activity of 28 mm. In the case of `CC(C)=CCC[C@@H](C)[C@H]1CC[C@@]2(C)[C@@H]3CC[C@H]4C(C)(C)[C@@H](O)CC[C@@]45C[C@@]35CC[C@]12C` [CYCLOARTENOL], the Activity is reported as 31 mm. Work on `CC(C)=CCC[C@@H](C)[C@H]1CC[C@@]2(C)C3=C(CC[C@]12C)[C@@]1(C)CC[C@H](O)C(C)(C)[C@@H]1CC3` [LANOSTEROL] yielded an Activity of 30.5 mm. With `C=C(C)[C@@H]1CC[C@]2(C)CC[C@]3(C)[C@H](CC[C@@H]4[C@@]5(C)CC[C@H](O)C(C)(C)[C@@H]5CC[C@]43C)[C@@H]12` [LUPEOL] the Activity was 29.5 mm. With `CC1(C)CC[C@]2(C(=O)O)CC[C@]3(C)C(=CC[C@@H]4[C@@]5(C)CC[C@H](O)C(C)(C)[C@@H]5CC[C@]43C)[C@@H]2C1` [OLEANOLIC_ACID] the Activity was 29 mm. `CC1(C)CC[C@]2(C)CC[C@]3(C)C(=CC[C@@H]4[C@@]5(C)CC[C@H](O)C(C)(C)[C@@H]5CC[C@]43C)[C@@H]2C1` [beta-AMYRIN] showed an Activity of 35 mm.
